From US20120065126A1, “Pharmaceutical Compositions Containing Antifungal Peptides” (BASF SE, priority 2009, published 2012)
Ends that are not written are not given here.

Legend:
[1] = system: Malassezia furfur; experiment: Growth inhibition at equal concentrations by weight of P18, zinc pyrithione, climbazole, ketoconazole (CFU); format: cell-based
Protocol: (§1) The studies described hereinafter were conducted on the Malassezia furfur strain DSM 6170.
For this purpose, the procedure was as follows:
(§2) The growth test was effected as follows: a shake culture containing M472 Pityrosporum medium was inoculated with M. furfur and incubated with shaking at 30° C. and 200 rpm overnight.
A 96-well microtiter plate was filled with 100 μl per well of M472 Pityrosporum medium and inoculated with M. furfur suspension from the overnight culture. The M. furfur suspension was adjusted at the start of the experiment to an optical density, measured at 600 nm, of 0.02. The concentrates of the inhibitor solutions were 1 mM in DMSO for P18 peptide and 10 mM in DMSO for zinc pyrithione, ketoconazole and climbazole. The final DMSO concentration was kept the same in all experiments.
The following growth was compared by measuring the optical density: • M. furfur suspension and addition of the P18 solution with a final concentration of 50 μM (corresponds to 0.0115% (w/w)) • M. furfur suspension and addition of the zinc pyrithione (ZPT) solution with a final concentration of 362 μM (comparison to the mixture containing 50 μM P18 peptide) • M. furfur suspension and addition of the ketoconazole solution with a final concentration of 216 μM (comparison to the mixture containing 50 μM P18 peptide) • M. furfur suspension and addition of the climbazole solution with a final concentration of 390 μM (comparison to the mixture containing 50 μM P18 peptide)
The microtiter plate was incubated with shaking at 30° C.
[…] After incubation over the course of 6 days, the colonies on the plate were counted. The CFU was determined in order to rule out any influence of the biphasic medium, and also the growth form of M. furfur, on the optical density. The experiments were each conducted in double determination, at least in two independent experiments.

[2] = system: M. furfur DSM 6170; experiment: Comparison of further inventive peptides and AFPP (CFU); format: cell-based, Malassezia furfur; conditions: 0.3%; 10 minutes
Excerpt: In order to compare the effect of other inventive peptides with the effect of the antifungal polypeptide AFPP from Aspergillus giganteus on the growth of Malassezia furfur, the procedure was as follows:
As a comparison, the peptide variants with SEQ ID NO. 4726 (sequence: FKKALHLFKPIKKFLKWK-NH2 (Bachem AG, Switzerland)) and SEQ ID NO. 4727 (sequence: KFLHLAKKFPKWKLFKKI-NH2 (Bachem AG, Switzerland)) were selected. The peptide and AFPP concentrates were in the form of 2% (w/w) solutions in phosphate buffer (10 mM sodium phosphate, pH 7.5, 100 mM NaCl). […]
For each test mixture, a 1.5 ml reaction vessel was filled with Pityrosporum medium and inoculated with the M. furfur overnight culture to give a start OD of 0.1, measured at 600 nm.
The growth of the following test mixtures was monitored: • M. furfur suspension and addition of 90 μl of phosphate buffer (in order to rule out any influence of the phosphate buffer on the effect of the active peptides at a final concentration of 0.3%) • M. furfur suspension with a final concentration of the inventive peptide variant with SEQ ID NO. […]
The reaction volume was 600 μl in each case. […] The CFU (colony forming units) were determined by counting after incubation at 30° C. for 6 days. […]

[3] = system: M. furfur; experiment: Effect of P18 variants (CFU); format: cell-based, Malassezia furfur; conditions: 50 μM peptide, with DMSO; 24 h
Protocol: as §1
The inhibitory effect of the following P18 variants on M. furfur was studied:
as §2
A 96-well microtiter plate was filled with 100 μl per well of M472 Pityrosporum medium and inoculated with M. furfur suspension from the overnight culture. The M. furfur suspension was adjusted at the start of the experiment to an optical density, measured at 600 nm, of 0.1.
The peptide variants were dissolved with a final concentration of 1 mM in dimethyl sulfoxide (DMSO). It is also possible to dispense with DMSO and to use a purely aqueous peptide solution. 5 μl of this solution were added to 100 μl of M. furfur suspension (final concentration of the P18 peptide 50 μM). In a control mixture, the same amount of DMSO without P18 peptide was added.
The microtiter plate was incubated with shaking at 30°.
After 24 h, the colony forming units (CFU) were determined by streaking 10 μl of each of the suspensions and, after incubation over the course of 6 days, counting the colonies. Two independent experiments each with three identical mixtures were conducted, and the number of colony forming units was averaged.

Compound | Colony forming units after the incubation time specified [2] [CFU] | Averaged number of colony forming units (CFU) [3] [CFU] | other results
CC(C)(C)C(=O)C(Oc1ccc(Cl)cc1)n1ccnc1 (centres unmarked) [climbazole] | – | – | Colony forming units (CFU) ([1]; final conc. 390 μM, 24 h): 137 ± 33 CFU; Colony forming units (CFU) ([1]; final conc. 390 μM, 40 h): 35 ± 15 CFU
CC(=O)N1CCN(c2ccc(OCC3COC(Cn4ccnc4)(c4ccc(Cl)cc4Cl)O3)cc2)CC1 (centres unmarked) [ketoconazole] | – | – | Colony forming units (CFU) ([1]; final conc. 216 μM, 24 h): 84 ± 76 CFU; Colony forming units (CFU) ([1]; final conc. 216 μM, 40 h): 9 ± 5 CFU
FKKALHLFKPIKKFLKWK-NH2 [Peptide variant SEQ ID NO. 4726] | 3 ± 1 | – | –
H-KWKLFKKIPKFLHLAKKF-OH [P18-OH] | – | 3 | –
H-PKWKLFKKIPKFLHLAKKFD-OH [P18AC-OH] | – | 37 | –
KFLHLAKKFPKWKLFKKI-NH2 [Peptide variant SEQ ID NO. 4727] | 59 ± 46 | – | –
